The assay deals with ADMP. To be noted: GLU to GLN substitution at position 373 (P1).

Take “QTVTWPDMELPLPRNITEGQARGSVILTVK-Biotin [30-IP]”: the “mode of inhibition of the enzyme” value is reported as “competitive inhibitor”.

For the origin of these results see US7223834B2, “Assays and peptide substrate for determining aggrecan degrading metallo protease activity” (Bristol-Myers Squibb Pharma Company, priority 1997, dated 2007).
